In data set [1] the test system is G93A-SOD1 mice. Put plainly: G93A-SOD1 mouse ALS model, NDGA i.p.: rotorod and survival. Format: in vivo. How it is done: More subtle defects in motor performance are measured using a rotorod device. The animals are placed on a horizontal rod set to spin about its long axis, initially at 1 rpm. The revolution rate is increased at a constant rate of 1 rpm every 10 sec and the experiment continues until the animal falls off the rod. In contrast to mice bearing mutant SOD1 transgenes, animals bearing the wild-type human SOD1 transgenes display healthy motor function.
The G93A-SOD1 mice were used to test for in vivo efficacy of a benchmark tethered bis(polyhydroxyphenyl) compound, nordihydroguaiaretic acid (NDGA). In one experiment, 10 G93A-SOD1 animals were trained to the rotorod task at 85 days of age. At 90 days of age, animals were divided into two groups of 5 animals each. One group was injected intraperitoneally with NDGA (10 mg/kg, 5 days/week, in 95% saline/5% DMSO vehicle). The control group received vehicle only. Animals were tested on the rotorod device every 5 days subsequently.
Initially, rotorod performance characteristics improve in all mice as the animals become acquainted with the apparatus. At 100 days animals obtain peak performance (FIG. 3A). At timepoints subsequent to 100 day, animals decline in motor performance. In order to control for differences in initial strength amongst the 10 animals, all data subsequent to the 100 day timepoint was expressed as a percentage relative to the peak performance at 100 day (FIGS. 3B and 3C). […] When the data in FIG. 3B were assessed using repeated measures analysis of variance (ANOVA), a significant age X treatment effect was observed (p<0.005). At the 120D timepoint, the statistical assessment by Student's t-test indicates p<0.08 between drug and vehicle groups (i.e. 92% probability of a protective drug effect).
The potency of NDGA in vitro inspired further study in vivo. Two separate studies were performed. In the first experiment, 10 G93A-SOD1 mice were randomized into groups receiving 10 mg/kg NDGA i.p. or vehicle alone, beginning at 90 D of age. […] Rotarod performance tests were conducted at 5 D intervals. […] The median lifespan of the five NDGA-treated animals was 127 D, as compared to 121 D for the control group, representing a 20% extension of lifespan after the start of treatment.
In a separate experiment, NDGA was administered intraperitoneally to a small group of G93A-SOD1 mice (5 control and 5 drug-treated animals; 10 mg/kg 5 days/week beginning at 90 D). In this paradigm, NDGA also extended survival although logrank statistics were not formally significant (median lifespan after start of treatment=31 D in control animals and 37 D in NDGA-treated animals; p=0.074 by logrank test). […] The i.p. administration of NDGA was somewhat affected by the inclusion of DMSO in vehicle; G93A-SOD1 mice receiving DMSO alone died approximately 10 D sooner than normally would be expected from these animals. Taken together, the data strongly indicate a positive effect of NDGA on the prognosis of disease in rapidly-progressing G93A-SOD1 mice.
A general note: In the rotarod test animals must keep their balance on a rotating rod.

The test system of data set [2] is G93A-SOD1 mice. How it is done:
NDGA was formulated into AIN93G laboratory mouse chow at 2500 ppm (approximately […] intake/mouse/day). […] G93A-SOD1 mice and nontransgenic littermates were fed this NDGA-containing diet, or a control diet, beginning at 90 D of age. An observer blinded to the treatment groups tested the animals on the rotarod task at 100 D and every 5 days thereafter. […] This is a very important point, as most forms of human ALS are sporadic and prophylactic treatment is not practical.

The test system of a further data set is C57/B6 mice. Put plainly: 3-nitropropionic acid (3NP) striatal damage model, rotarod and balance beam. Format: in vivo. The following applies: 2500 ppm in diet for one month, then 3NP 50 mg/kg i.p. every 12 h for 5 days. The method, then:
Mice were then injected with 50 mg/kg 3NP intraperitoneally, every 12 h for 5 days. Motor performance was assessed daily by a rotarod task and balance was assessed by a balance wire task. In the rotarod task (Hensley et al. 2002), animals were placed on a bar rotating at 1 rpm and accelerating 10 rpm/minute until the animal fell from the bar. In the balance beam test, mice were placed on a 2-cm balance beam by suspending them by the tail, orienting them perpendicular to the beam, and placing the forepaws followed by hindpaws on the balance beam. Mice were left on the beam until they fell onto a soft cushion 75 cm below or until 5 min elapsed. The longest time of each pair of trials was used for statistical analysis.

The next data set can be described thus: Water solubility. Format: physicochemical.
The next data set has as its system mice. The following applies: cited from earlier work.

SMILES strings stand for the structures. Where two headings read alike, the source gives them in different places.

Regarding `C[C@H](Cc1ccc(O)c(O)c1)[C@@H](C)Cc1ccc(O)c(O)c1` [NDGA, 1,4-bis (3,4-Dihydroxyphenyl)-2,3-dimethylbutane], in the data set with G93A-SOD1 mice [1] (10 mg/kg i.p. 5 days/week from 90 D), the “median lifespan after start of treatment” value stood at 37 D. Further, in the data set on G93A-SOD1 mice [1] (10 mg/kg i.p. from 90 D), the “extension of lifespan after the start of treatment” value amounted to 20% and the median lifespan is 127 D. The “reduction in rate of motor functional decline relative to vehicle” value with G93A-SOD1 mice [1] (10 mg/kg i.p. from 90 D, linear regression 100-120D) is on record as 38%. In addition, the “slope of motor functional decline” value in the data set on G93A-SOD1 mice [1] (10 mg/kg i.p., 100-120D) came to 2.96 % decrease/day. The “rotarod performance” value in the data set on G93A-SOD1 mice [1] (i.p. administration) is “not significantly affected”. Besides, in the data set on G93A-SOD1 mice [2] (2500 ppm in chow from 90 D), the “RR (survival, logrank analysis)” value amounted to 0.27 and the “median age of death” value was found to be 140 D. Moreover, in the data set with G93A-SOD1 mice [2] (mouse, in vivo), the “pathological effects at necropsy” value is “no pathological effects of the drug were observed” and the weight changes entry is listed as “No weight changes were observed”. Moreover, in the data set with G93A-SOD1 mice [2] (oral), the “extension of paralytic phase (onset of paralysis to death)” value is “approximately 40%” and the “rotarod performance” value is on record as “significantly improved rotarod performance”. In the data set on G93A-SOD1 mice [2] (oral NDGA), the “Onset of frank paralysis, mean ± SD” value is recorded as 121 ± 7.1 D; the “Onset of frank paralysis, median” value is 120 D; the “Time between onset and death, mean ± SD” value worked out at 16.5 ± 7.9 D; the “Time between onset and death, median” value was 14 D. For the same compound, in the data set on G93A-SOD1 mice [2] (oral, from 90 D), the “extension of median lifespan” value came out at 13 D and the “prolongation of lifespan after start of treatment” value is 32%. In the data set on C57/B6 mice, the “balance test” value was “significantly improved functional ability” and the “rotarod test” value is “significantly improved functional ability”. Moreover, the “water solubility” value in “Water solubility” is “limited water solubility”. In addition, in the data set with mice (0.5% of the diet, long-term, mice), the “effects of long-term feeding” value is “no ill effects”. Also, the LD50 entry in the data set on mice (mouse, in vivo, ip) is on record as “greater than 500 mg/kg”.

The values above are taken from US20040014721A1, “Method for using tethered bis(polyhydroxyphenyls) and O-alkyl derivatives thereof in treating inflammatory conditions of the central nervous system” (Oklahoma Medical Research Foundation, priority 2002, published 2004).
